These results are taken from ChEMBL document CHEMBL3627674, “Discovery of wrightiadione as a novel template for the TrkA kinase inhibitors” (Bioorg Med Chem Lett, 2015).

The target in test [1] is Proto-oncogene tyrosine-protein kinase receptor Ret (Homo sapiens) (UniProt P07949). Description: Inhibition of RET (unknown origin) assessed as remaining activity at 10 uM by high-throughput assay relative to control.
In test [2] the target is SRSF protein kinase 3 (Homo sapiens) (UniProt Q9UPE1). Description: Inhibition of SRPK3 (unknown origin) assessed as remaining activity at 10 uM by high-throughput assay relative to control.
Test [3] concerns the target Epidermal growth factor receptor (Homo sapiens) (UniProt P00533). Description: Inhibition of EGFR (unknown origin) assessed as remaining activity at 10 uM by high-throughput assay relative to control.
Test [4] addresses Cyclin-dependent kinase 7 (Homo sapiens) (UniProt P50613). Description: Inhibition of CDK7 (unknown origin) assessed as remaining activity at 10 uM by high-throughput assay relative to control.
Test [5] addresses Tyrosine-protein kinase receptor UFO (Homo sapiens) (UniProt P30530). Description: Inhibition of AXL (unknown origin) assessed as remaining activity at 10 uM by high-throughput assay relative to control.
The target of test [6] is ALK tyrosine kinase receptor (Homo sapiens) (UniProt Q9UM73). Description: Inhibition of ALK (unknown origin) assessed as remaining activity at 10 uM by high-throughput assay relative to control.
Test [7] addresses Tyrosine-protein kinase ABL1 (Homo sapiens) (UniProt P00519). Description: Inhibition of ABL1 (unknown origin) assessed as remaining activity at 10 uM by high-throughput assay relative to control.
The target in test [8] is Serine/threonine-protein kinase PLK3 (Homo sapiens, UniProt Q9H4B4). Description: Inhibition of PLK3 (unknown origin) by radiometric analysis in presence of [gamma-33P]-ATP.
Test [9] has as its target Non-receptor tyrosine-protein kinase TYK2 (Homo sapiens) (UniProt P29597). Description: Inhibition of TYK2 JH1 catalytic domain (unknown origin) assessed as remaining activity at 10 uM by high-throughput assay relative to control.
For test [10], the target named is Platelet-derived growth factor receptor beta (Homo sapiens) (UniProt P09619). Description: Inhibition of PDGFRB (unknown origin) assessed as remaining activity at 10 uM by high-throughput assay relative to control.
The target in test [11] is Dual specificity tyrosine-phosphorylation-regulated kinase 1B (Homo sapiens) (UniProt Q9Y463). Description: Inhibition of DYRK1B (unknown origin) assessed as remaining activity at 10 uM by high-throughput assay relative to control.
The target in test [12] is NUAK family SNF1-like kinase 2 (Homo sapiens) (UniProt Q9H093). Description: Inhibition of SNARK (unknown origin) assessed as remaining activity at 10 uM by high-throughput assay relative to control.
Test [13] deals with MAP kinase-interacting serine/threonine-protein kinase 1 (Homo sapiens) (UniProt Q9BUB5). Description: Inhibition of MKNK1 (unknown origin) assessed as remaining activity at 10 uM by high-throughput assay relative to control.
The target in test [14] is Mitogen-activated protein kinase kinase kinase 4 (Homo sapiens) (UniProt Q9Y6R4). Description: Inhibition of MAP3K4 (unknown origin) assessed as remaining activity at 10 uM by high-throughput assay relative to control.
Test [15] has as its target RAF proto-oncogene serine/threonine-protein kinase (Homo sapiens) (UniProt P04049). Description: Inhibition of RAF1 (unknown origin) assessed as remaining activity at 10 uM by high-throughput assay relative to control.
In test [16] the target is Serine/threonine-protein kinase pim-2 (Homo sapiens) (UniProt Q9P1W9). Description: Inhibition of PIM2 (unknown origin) assessed as remaining activity at 10 uM by high-throughput assay relative to control.
Test [17] addresses Cyclin-dependent kinase 11B (Homo sapiens) (UniProt P21127). Description: Inhibition of CDK11 (unknown origin) assessed as remaining activity at 10 uM by high-throughput assay relative to control.
In test [18] the target is Serine/threonine-protein kinase Chk1 (Homo sapiens) (UniProt O14757). Description: Inhibition of CHEK1 (unknown origin) assessed as remaining activity at 10 uM by high-throughput assay relative to control.
The target of test [19] is Serine/threonine-protein kinase RIO2 (Homo sapiens) (UniProt Q9BVS4). Description: Inhibition of RIOK2 (unknown origin) assessed as remaining activity at 10 uM by high-throughput assay relative to control.
Test [20] addresses Cyclin-dependent kinase 2 (Homo sapiens) (UniProt P24941). Description: Inhibition of CDK2 (unknown origin) assessed as remaining activity at 10 uM by high-throughput assay relative to control.
The target of test [21] is Glycogen synthase kinase-3 beta (Homo sapiens) (UniProt P49841). Description: Inhibition of GSK3B (unknown origin) assessed as remaining activity at 10 uM by high-throughput assay relative to control.
For test [22], the target named is Platelet-derived growth factor receptor alpha (Homo sapiens) (UniProt P16234). Description: Inhibition of PDGFRA (unknown origin) assessed as remaining activity at 10 uM by high-throughput assay relative to control.
In test [23] the target is Cyclin-dependent kinase 3 (Homo sapiens) (UniProt Q00526). Description: Inhibition of CDK3 (unknown origin) assessed as remaining activity at 10 uM by high-throughput assay relative to control.
In test [24] the test system is Tyrosine-protein kinase ABL1 (Homo sapiens), P00519 [E255K]. Description: Inhibition of ABL1 E255K mutant phosphorylation (unknown origin) assessed as remaining activity at 10 uM by high-throughput assay relative to control.

The structures appear in SMILES notation.

Mitogen-activated protein kinase kinase kinase 4 (Homo sapiens), sequence (Q9Y6R4 whole entry): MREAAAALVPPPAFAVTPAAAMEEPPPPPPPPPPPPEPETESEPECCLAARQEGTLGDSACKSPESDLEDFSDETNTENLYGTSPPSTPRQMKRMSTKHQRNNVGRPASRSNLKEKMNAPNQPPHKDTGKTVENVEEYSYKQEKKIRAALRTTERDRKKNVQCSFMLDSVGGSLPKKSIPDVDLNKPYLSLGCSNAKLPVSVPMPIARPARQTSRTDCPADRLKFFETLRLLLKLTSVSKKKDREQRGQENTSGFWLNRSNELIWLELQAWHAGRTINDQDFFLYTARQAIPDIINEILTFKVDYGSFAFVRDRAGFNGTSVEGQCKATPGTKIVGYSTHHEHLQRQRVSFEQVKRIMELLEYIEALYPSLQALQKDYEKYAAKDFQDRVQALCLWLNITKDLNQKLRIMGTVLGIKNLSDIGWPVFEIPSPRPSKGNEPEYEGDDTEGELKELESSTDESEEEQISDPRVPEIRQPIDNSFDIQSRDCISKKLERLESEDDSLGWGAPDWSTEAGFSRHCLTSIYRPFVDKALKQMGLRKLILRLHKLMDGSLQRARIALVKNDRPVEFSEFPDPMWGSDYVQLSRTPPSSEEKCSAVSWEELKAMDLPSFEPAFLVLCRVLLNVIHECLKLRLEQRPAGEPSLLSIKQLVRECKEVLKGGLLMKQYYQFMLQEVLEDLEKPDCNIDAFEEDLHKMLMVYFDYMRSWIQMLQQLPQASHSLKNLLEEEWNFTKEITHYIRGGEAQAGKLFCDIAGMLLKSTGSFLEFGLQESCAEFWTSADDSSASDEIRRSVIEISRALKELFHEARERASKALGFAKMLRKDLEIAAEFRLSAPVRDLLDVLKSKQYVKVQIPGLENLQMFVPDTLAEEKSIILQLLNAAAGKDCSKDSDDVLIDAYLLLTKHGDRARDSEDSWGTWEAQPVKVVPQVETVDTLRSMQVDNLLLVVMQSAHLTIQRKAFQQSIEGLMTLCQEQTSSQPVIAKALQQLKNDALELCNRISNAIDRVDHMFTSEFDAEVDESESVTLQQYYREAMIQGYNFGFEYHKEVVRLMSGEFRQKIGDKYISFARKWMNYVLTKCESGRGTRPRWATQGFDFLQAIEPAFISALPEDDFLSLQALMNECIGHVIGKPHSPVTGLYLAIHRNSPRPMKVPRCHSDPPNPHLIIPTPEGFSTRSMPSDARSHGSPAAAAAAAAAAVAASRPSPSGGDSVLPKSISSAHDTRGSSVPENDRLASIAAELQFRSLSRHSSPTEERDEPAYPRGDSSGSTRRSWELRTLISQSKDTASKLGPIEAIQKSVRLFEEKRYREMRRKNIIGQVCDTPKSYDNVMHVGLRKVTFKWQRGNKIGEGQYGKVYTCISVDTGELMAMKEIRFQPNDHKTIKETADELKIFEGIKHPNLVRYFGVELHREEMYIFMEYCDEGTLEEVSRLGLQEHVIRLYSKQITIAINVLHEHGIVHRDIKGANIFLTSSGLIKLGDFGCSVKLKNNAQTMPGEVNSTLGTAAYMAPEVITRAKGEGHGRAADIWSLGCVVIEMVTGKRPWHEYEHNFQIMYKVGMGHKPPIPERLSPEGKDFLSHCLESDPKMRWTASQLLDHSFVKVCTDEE
Serine/threonine-protein kinase PLK3, sequence (Q9H4B4 whole entry, the tested form may be a part): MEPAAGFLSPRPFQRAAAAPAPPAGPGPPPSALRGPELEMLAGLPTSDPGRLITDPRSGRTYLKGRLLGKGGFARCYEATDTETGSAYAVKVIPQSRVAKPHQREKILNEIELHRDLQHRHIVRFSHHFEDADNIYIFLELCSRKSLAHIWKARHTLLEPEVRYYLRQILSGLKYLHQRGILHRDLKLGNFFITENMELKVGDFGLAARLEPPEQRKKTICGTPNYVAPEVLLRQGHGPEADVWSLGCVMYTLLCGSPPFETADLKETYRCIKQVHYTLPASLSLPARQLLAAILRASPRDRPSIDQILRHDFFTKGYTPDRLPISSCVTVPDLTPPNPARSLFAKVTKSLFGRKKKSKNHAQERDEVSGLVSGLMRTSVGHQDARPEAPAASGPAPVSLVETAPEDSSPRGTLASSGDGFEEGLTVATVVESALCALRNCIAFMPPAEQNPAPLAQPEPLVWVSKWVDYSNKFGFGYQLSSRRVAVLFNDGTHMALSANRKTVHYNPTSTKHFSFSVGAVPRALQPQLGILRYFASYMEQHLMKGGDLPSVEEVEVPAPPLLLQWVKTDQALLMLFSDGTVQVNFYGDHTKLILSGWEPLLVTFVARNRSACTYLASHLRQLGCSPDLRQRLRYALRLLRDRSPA
MAP kinase-interacting serine/threonine-protein kinase 1 (Homo sapiens), sequence (Q9BUB5 whole entry, looked up): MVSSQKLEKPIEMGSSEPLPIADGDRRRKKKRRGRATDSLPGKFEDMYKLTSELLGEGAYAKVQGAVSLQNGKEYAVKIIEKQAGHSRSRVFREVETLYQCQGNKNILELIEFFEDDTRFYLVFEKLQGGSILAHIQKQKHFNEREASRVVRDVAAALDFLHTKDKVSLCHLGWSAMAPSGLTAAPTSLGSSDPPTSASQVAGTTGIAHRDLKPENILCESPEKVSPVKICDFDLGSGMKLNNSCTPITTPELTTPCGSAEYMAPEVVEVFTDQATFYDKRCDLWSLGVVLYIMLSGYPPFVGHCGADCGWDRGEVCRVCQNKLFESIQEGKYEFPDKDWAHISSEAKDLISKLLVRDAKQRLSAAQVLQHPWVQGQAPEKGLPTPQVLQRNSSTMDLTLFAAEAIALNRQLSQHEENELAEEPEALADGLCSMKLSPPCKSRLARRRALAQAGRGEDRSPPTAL
NUAK family SNF1-like kinase 2 (Homo sapiens), sequence (Q9H093 whole entry): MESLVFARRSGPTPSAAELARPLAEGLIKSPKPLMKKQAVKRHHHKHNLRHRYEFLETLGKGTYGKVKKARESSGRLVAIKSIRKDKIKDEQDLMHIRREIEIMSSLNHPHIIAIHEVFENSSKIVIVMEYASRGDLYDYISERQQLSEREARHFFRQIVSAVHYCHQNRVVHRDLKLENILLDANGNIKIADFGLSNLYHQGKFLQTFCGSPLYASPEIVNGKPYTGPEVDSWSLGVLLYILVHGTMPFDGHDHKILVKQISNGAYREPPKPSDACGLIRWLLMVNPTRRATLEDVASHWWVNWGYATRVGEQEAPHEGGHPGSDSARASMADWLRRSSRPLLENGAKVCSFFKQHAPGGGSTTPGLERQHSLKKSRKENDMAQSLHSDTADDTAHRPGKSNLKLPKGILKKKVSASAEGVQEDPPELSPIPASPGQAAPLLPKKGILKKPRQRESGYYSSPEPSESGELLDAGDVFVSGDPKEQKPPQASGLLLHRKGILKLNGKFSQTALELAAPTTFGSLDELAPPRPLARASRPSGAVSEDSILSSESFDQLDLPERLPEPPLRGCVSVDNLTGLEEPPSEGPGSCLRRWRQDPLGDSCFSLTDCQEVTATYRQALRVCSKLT
ALK tyrosine kinase receptor (Homo sapiens), sequence (Q9UM73 19-1620 limits assumed): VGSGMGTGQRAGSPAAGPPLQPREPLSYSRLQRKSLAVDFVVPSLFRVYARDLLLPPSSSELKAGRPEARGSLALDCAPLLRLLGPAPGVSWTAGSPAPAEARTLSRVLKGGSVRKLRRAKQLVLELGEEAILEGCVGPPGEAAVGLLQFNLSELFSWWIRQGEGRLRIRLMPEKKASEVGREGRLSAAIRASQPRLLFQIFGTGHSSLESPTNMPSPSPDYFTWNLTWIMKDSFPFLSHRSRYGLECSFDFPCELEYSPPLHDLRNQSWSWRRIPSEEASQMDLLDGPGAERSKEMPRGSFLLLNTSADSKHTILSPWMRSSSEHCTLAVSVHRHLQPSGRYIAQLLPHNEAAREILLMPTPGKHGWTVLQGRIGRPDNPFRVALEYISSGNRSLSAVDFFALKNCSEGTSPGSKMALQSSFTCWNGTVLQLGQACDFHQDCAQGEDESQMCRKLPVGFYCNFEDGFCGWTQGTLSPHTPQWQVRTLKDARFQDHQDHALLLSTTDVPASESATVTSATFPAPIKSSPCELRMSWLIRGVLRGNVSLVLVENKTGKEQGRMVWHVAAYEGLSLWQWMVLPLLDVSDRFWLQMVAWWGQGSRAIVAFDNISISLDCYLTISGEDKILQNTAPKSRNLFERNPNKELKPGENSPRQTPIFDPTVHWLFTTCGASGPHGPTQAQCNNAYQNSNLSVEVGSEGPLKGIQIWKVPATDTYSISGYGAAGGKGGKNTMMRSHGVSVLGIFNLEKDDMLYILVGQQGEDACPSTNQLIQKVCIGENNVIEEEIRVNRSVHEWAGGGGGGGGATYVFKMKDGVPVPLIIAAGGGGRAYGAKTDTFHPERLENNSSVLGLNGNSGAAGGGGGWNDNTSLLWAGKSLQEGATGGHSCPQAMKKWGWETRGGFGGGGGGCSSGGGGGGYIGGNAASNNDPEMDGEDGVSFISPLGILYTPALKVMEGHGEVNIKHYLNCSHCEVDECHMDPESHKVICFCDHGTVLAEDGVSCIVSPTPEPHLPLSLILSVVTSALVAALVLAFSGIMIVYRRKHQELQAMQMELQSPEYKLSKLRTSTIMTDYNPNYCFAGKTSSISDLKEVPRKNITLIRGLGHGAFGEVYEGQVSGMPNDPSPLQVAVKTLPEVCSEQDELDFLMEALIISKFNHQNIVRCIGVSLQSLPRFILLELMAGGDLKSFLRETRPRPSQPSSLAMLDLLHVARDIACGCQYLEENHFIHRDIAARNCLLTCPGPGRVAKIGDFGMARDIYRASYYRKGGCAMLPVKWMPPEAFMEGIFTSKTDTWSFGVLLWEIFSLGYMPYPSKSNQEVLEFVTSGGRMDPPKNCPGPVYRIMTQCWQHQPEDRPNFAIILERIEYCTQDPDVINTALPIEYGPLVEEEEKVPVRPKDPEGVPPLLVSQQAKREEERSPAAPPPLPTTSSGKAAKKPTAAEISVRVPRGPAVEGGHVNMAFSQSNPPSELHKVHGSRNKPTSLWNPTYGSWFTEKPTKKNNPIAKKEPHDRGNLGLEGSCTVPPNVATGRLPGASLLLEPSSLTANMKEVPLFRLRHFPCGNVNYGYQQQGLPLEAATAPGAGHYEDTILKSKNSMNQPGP

As a reminder, the IC50 is the midpoint of a concentration-inhibition curve. For the molecule `O=C1c2ccccc2-c2c1oc1ccccc1c2=O`, the Activity in test [1] worked out at 74%; in test [2], 73%; in test [3], 93%; in [4] it was 59%; in test [5], 26%; in test [6], 48%. In addition, the Activity in test [7] is 95%; in test [9], 44%; in test [10] it was 45%; in [11], 52%; in [12] it was 70%; in test [13] it was 99%. The Activity stood at 91% in test [14]; 92% in test [15]; 82% in [16]; 66% in test [17]; 90% in [18]; 70% in [19]. The Activity worked out at 82% in test [20]; 77% in test [21]; 66% in [22]; 91% in [23]; 93% in test [24]. Further, the concentration for half-maximal inhibition (IC50) in test [8] stood at 8.97 µM.
